# In US20130196986A1 (priority 2010, published 2013):
# Target: T1, P2X7 receptor (Homo sapiens, UniProt Q99572)
# T1 construct: stably expressing the full length P2X7 receptor; expressed in transfected cells
# T1 sequence (Q99572 1-595): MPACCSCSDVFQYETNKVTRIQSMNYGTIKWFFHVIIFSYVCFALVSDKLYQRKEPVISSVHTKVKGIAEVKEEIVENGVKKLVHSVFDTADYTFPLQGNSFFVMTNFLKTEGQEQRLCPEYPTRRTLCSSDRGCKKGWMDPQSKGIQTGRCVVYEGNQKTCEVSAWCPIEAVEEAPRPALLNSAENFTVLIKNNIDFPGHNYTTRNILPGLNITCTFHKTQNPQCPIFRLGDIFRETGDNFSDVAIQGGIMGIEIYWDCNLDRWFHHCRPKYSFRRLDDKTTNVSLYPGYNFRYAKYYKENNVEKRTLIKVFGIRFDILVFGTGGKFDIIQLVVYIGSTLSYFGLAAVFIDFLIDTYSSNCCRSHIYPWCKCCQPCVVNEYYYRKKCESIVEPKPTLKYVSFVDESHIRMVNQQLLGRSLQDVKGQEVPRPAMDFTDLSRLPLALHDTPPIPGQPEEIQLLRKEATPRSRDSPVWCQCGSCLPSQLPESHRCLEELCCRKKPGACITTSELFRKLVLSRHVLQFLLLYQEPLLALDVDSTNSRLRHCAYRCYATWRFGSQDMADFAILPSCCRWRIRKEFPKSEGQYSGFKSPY
# Assay: Ca++ flux assay (FLIPR) in P2X7-HEK-293 cell line stably expressing the full length P2X7 receptor, Bz-ATP activation
# Assay type: cell-based
# Conditions: P2X7-HEK-293 cells; agonist Bz-ATP; fluorescence as total area over 90 seconds; read-out: P2X7 Ca Flux hu IC50
# Outline: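 HEK-293 cells stably expressing full-length P2X7 were loaded with Ca++-sensitive dye for 1 h, with compound added during loading. Cells were stimulated with Bz-ATP on FLIPR. Fluorescence was integrated as total area over 90 s, and IC50 was taken as 50% inhibition of the maximal Ca++ response.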
row,IC50 [nM],Structure (SMILES)
1,23.2,"Cc1c(Cl)cccc1-n1ccn2c(S(=O)(=O)Cc3ccccc3Cl)nnc2c1=O [Compound 134, 7-(3-chloro-2-methylphenyl)-3-(2-chlorobenzylsulfonyl)-[1,2,4]triazolo[4,3-a]pyrazin-8(7H)-one]"
2,23.3,"[2H]c1c([2H])c([2H])c(CS(=O)(=O)c2nnc3c(=O)n(-c4cccc(C(F)(F)F)c4C)ccn23)c([2H])c1[2H] [Compound 135, deuterated-7-[2-methyl-3-(trifluoromethyl)phenyl]-3-[(phenyl-(d5)-methyl)sulfonyl]-1,2,4-triazolo[4,3-a]pyrazin-8(7H)-one]"
3,26.9,"Cc1c(Cl)cccc1-n1ccn2c(S(=O)(=O)Cc3ccccc3C(C)(C)C)nnc2c1=O [Compound 136, 3-(2-tert-butylbenzylsulfonyl)-7-(3-chloro-2-methylphenyl)-[1,2,4]triazolo[4,3-a]pyrazin-8(7H)-one]"
4,30.4,Cc1cccc(-c2ccccc2CS(=O)(=O)c2nnc3c(=O)n(-c4cccc(C(F)(F)F)c4C)ccn23)c1 [Compound 137]
5,30.8,"Cc1c(-n2ccn3c(S(=O)(=O)Cc4ccccc4-c4ccc(F)cc4)nnc3c2=O)cccc1C(F)(F)F [Compound 138, 3-((4′-fluorobiphenyl-2-yl)methylsulfonyl)-7-(2-methyl-3-(trifluoromethyl)phenyl)-[1,2,4]triazolo[4,3-a]pyrazin-8(7H)-one]"
6,31.7,"Cc1c(Cl)cccc1-n1ccn2c(S(=O)(=O)Cc3ccccc3)nnc2c1=O [Compound 139, 3-(benzylsulfonyl)-7-(3-chloro-2-methylphenyl)-[1,2,4]triazolo[4,3-a]pyrazin-8(7H)-one]"
7,31.8,"[2H]c1c([2H])c([2H])c(C([2H])([2H])S(=O)(=O)c2nnc3c(=O)n(-c4cccc(Cl)c4C)ccn23)c([2H])c1[2H] [Compound 140, deuterated-7-(3-chloro-2-methylphenyl)-3-[(phenyl-(d5)methyl-(d2))sulfonyl]-1,2,4-triazolo[4,3-a]pyrazin-8(7H)-one]"
8,37,Cc1ccc(-c2ccccc2CS(=O)(=O)c2nnc3c(=O)n(-c4cccc(C(F)(F)F)c4C)ccn23)s1 [Compound 141]
9,39.5,"[2H]c1c([2H])c([2H])c(CS(=O)(=O)c2nnc3c(=O)n(-c4cccc(Cl)c4C)ccn23)c([2H])c1[2H] [Compound 142, deuterated-7-(3-chloro-2-methylphenyl)-3-[(phenyl-(d5)methyl)sulfonyl]-1,2,4-triazolo[4,3-a]pyrazin-8(7H)-one]"
10,46.2,"Cc1c(-n2ccn3c(S(=O)(=O)Cc4ccccc4-c4cccs4)nnc3c2=O)cccc1C(F)(F)F [Compound 143, 7-(2-methyl-3-(trifluoromethyl)phenyl)-3-(2-(thiophen-2-yl)benzylsulfonyl)-[1,2,4]triazolo[4,3-a]pyrazin-8(7H)-one]"
11,130,"O=c1c2nnc(S(=O)(=O)C(c3ccccc3)c3ccccc3)n2ccn1-c1cccc(C(F)(F)F)c1Cl [Compound 144, 3-(benzhydrylsulfonyl)-7-(2-chloro-3-(trifluoromethyl)phenyl)-[1,2,4]triazolo[4,3-a]pyrazin-8(7H)-one]"
12,47.9,"O=c1c2nnc(S(=O)(=O)Cc3cccc4ccccc34)n2ccn1-c1cccc(C(F)(F)F)c1Cl [Compound 145, 7-(2-chloro-3-(trifluoromethyl)phenyl)-3-(naphthalen-1-ylmethylsulfonyl)-[1,2,4]triazolo[4,3-a]pyrazin-8(7H)-one]"
13,47,"COc1cccc(-c2ccccc2CS(=O)(=O)c2nnc3c(=O)n(-c4cccc(C(F)(F)F)c4C)ccn23)c1 [Compound 146, 3-((3′-methoxybiphenyl-2-yl)methylsulfonyl)-7-(2-methyl-3-(trifluoromethyl)phenyl)-[1,2,4]triazolo[4,3-a]pyrazin-8(7H)-one]"
14,45.8,"Cc1c(-n2ccn3c(S(=O)(=O)Cc4cscc4Br)nnc3c2=O)cccc1C(F)(F)F [Compound 147, 3-((4-bromothiophen-3-yl)methylsulfonyl)-7-(2-methyl-3-(trifluoromethyl)phenyl)-[1,2,4]triazolo[4,3-a]pyrazin-8(7H)-one]"
15,47,"Cc1c(Cl)cccc1-n1ccn2c(S(=O)(=O)Cc3ccc(F)cc3Cl)nnc2c1=O [Compound 148, 7-(3-chloro-2-methylphenyl)-3-(2-chloro-4-fluorobenzylsulfonyl)-[1,2,4]triazolo[4,3-a]pyrazin-8(7H)-one]"
16,48,Cc1c(-n2ccn3c(S(=O)(=O)Cc4ccccc4-c4ccccc4)nnc3c2=O)cccc1C(F)(F)F [Compound 149]

row,IC50 [nM],Structure (SMILES)
1,48.9,Cc1ccc(-c2ccccc2CS(=O)(=O)c2nnc3c(=O)n(-c4cccc(C(F)(F)F)c4C)ccn23)s1 [Compound 150]
2,50.9,"Cc1c(Cl)cccc1-n1ccn2c(S(=O)(=O)Cc3ccccc3-c3cccs3)nnc2c1=O [Compound 151, 7-(3-chloro-2-methylphenyl)-3-(2-(thiophen-2-yl)benzylsulfonyl)-[1,2,4]triazolo[4,3-a]pyrazin-8(7H)-one]"
3,51,Cc1cccc(-c2ccccc2CS(=O)(=O)c2nnc3c(=O)n(-c4cccc(C(F)(F)F)c4C)ccn23)c1 [Compound 152]
4,51.5,"Cc1c(-n2ccn3c(S(=O)(=O)Cc4ccccc4Oc4ccccc4)nnc3c2=O)cccc1C(F)(F)F [Compound 153, 7-(2-methyl-3-(trifluoromethyl)phenyl)-3-(2-phenoxybenzylsulfonyl)-[1,2,4]triazolo[4,3-a]pyrazin-8(7H)-one]"
5,51.9,"Cc1ccc(-c2ccccc2CS(=O)(=O)c2nnc3c(=O)n(-c4cccc(C(F)(F)F)c4C)ccn23)cc1 [Compound 154, 7-(2-methyl-3-(trifluoromethyl)phenyl)-3-((4′-methylbiphenyl-2-yl)methylsulfonyl)-[1,2,4]triazolo[4,3-a]pyrazin-8(7H)-one]"
6,53.2,"Cc1c(Cl)cccc1-n1ccn2c(S(=O)(=O)Cc3ccccc3-c3ccccc3)nnc2c1=O [Compound 155, 3-(biphenyl-2-ylmethylsulfonyl)-7-(3-chloro-2-methylphenyl)-[1,2,4]triazolo[4,3-a]pyrazin-8(7H)-one]"
7,119,"Cc1c(Cl)cccc1-n1ccn2c(S(=O)(=O)Cc3cccc(Cl)c3)nnc2c1=O [Compound 156, 7-(3-chloro-2-methylphenyl)-3-(3-chlorobenzylsulfonyl)-[1,2,4]triazolo[4,3-a]pyrazin-8(7H)-one]"
8,136,"Cc1c(Cl)cccc1-n1ccn2c(S(=O)(=O)Cc3ccc(Cl)cc3)nnc2c1=O [Compound 157, 7-(3-chloro-2-methylphenyl)-3-(4-chlorobenzylsulfonyl)-[1,2,4]triazolo[4,3-a]pyrazin-8(7H)-one]"
9,189,"Cc1c(Cl)cccc1-n1ccn2c(S(=O)(=O)Cc3ccccc3N3CCOCC3)nnc2c1=O [Compound 158, 7-(3-chloro-2-methylphenyl)-3-(2-morpholinobenzylsulfonyl)-[1,2,4]triazolo[4,3-a]pyrazin-8(7H)-one]"
10,1130,"Cc1c(-n2ccn3c(S(=O)(=O)Cc4cccc5c4-c4ccccc4C5)nnc3c2=O)cccc1C(F)(F)F [Compound 159, 3-((9H-fluoren-4-yl)methylsulfonyl)-7-(2-methyl-3-(trifluoromethyl)phenyl)-[1,2,4]triazolo[4,3-a]pyrazin-8(7H)-one]"
11,284,"Cc1onc(-c2ccccc2)c1CS(=O)(=O)c1nnc2c(=O)n(-c3cccc(C(F)(F)F)c3C)ccn12 [Compound 160, 7-(2-methyl-3-(trifluoromethyl)phenyl)-3-((5-methyl-3-phenylisoxazol-4-yl)methylsulfonyl)-[1,2,4]triazolo[4,3-a]pyrazin-8(7H)-one]"
12,335,"Cc1c(Cl)cccc1-n1ccn2c(S(=O)(=O)Cc3cc(Cl)cc(Cl)c3)nnc2c1=O [Compound 161, 7-(3-chloro-2-methylphenyl)-3-(3,5-dichlorobenzylsulfonyl)-[1,2,4]triazolo[4,3-a]pyrazin-8(7H)-one]"
13,335,"Cc1c(Cl)cccc1-n1ccn2c([S+]([O-])Cc3cc(Cl)cc(Cl)c3)nnc2c1=O (centres unmarked) [Compound 162, 7-(3-chloro-2-methylphenyl)-3-(3,5-dichlorobenzylsulfinyl)-[1,2,4]triazolo[4,3-a]pyrazin-8(7H)-one]"
14,3110,"Cc1c(-n2ccn3c(S(=O)(=O)CC(=O)c4ccccc4)nnc3c2=O)cccc1C(F)(F)F [Compound 163, 7-(2-methyl-3-(trifluoromethyl)phenyl)-3-(2-oxo-2-phenylethylsulfonyl)-[1,2,4]triazolo[4,3-a]pyrazin-8(7H)-one]"
15,629,"Cc1c(-n2ccn3c(S(=O)(=O)Cc4ccccc4-c4ccc(C(F)(F)F)cc4)nnc3c2=O)cccc1C(F)(F)F [Compound 164, 7-(2-methyl-3-(trifluoromethyl)phenyl)-3-((4′-(trifluoromethyl)biphenyl-2-yl)methylsulfonyl)-[1,2,4]triazolo[4,3-a]pyrazin-8(7H)-one]"
16,5680,"Cc1c(-n2ccn3c(S(C)(=O)=O)nnc3c2=O)cccc1C(F)(F)F [Compound 165, 7-(2-methyl-3-(trifluoromethyl)phenyl)-3-(methylsulfonyl)-[1,2,4]triazolo[4,3-a]pyrazin-8(7H)-one]"
